Measured values: US20220323383A1, “SMALL-MOLECULAR ADJUVANTS AND IMPLEMENTATIONS THEREOF” (JAWAHARLAL NEHRU CENTRE FOR ADVANCED SCIENTIFIC RESEARCH, priority 2019, published 2022)
Structures can show the parent of a compound that is named as a salt.

How the values were obtained:
Type in all cases: cell-based
[1] = test system: A. baumannii R674; test: Chequerboard combination efficacy of adjuvant with antibiotics
Method in brief: (§1)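 Two-fold chequerboard broth microdilution of adjuvant plus antibiotic; 6 h cultures in peptone diluted to ~10^5 cfu/mL, incubated 24 h at 37 °C, 150 rpm, OD600 read. Wells matching media control define inhibitory concentrations; FIC index (FICantibiotic+FICadjuvant) and potentiation factor (MIC alone/MIC with adjuvant) calculated.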

[2] = test system: K. pneumoniae R3934; test: as above
Method in brief: as §1

[3] = test system: P. aeruginosa R590; test: as above; settings: P. aeruginosa R590
Method in brief: as §1

[4] = test system: E. coli R3336; test: as above
Method in brief: as §1

[5] = test system: A. baumannii R674; test: Individual antibacterial activity (MIC) of adjuvants; settings: Acinetobacter baumannii, R674, read-out: MIC against clinical isolates of bacteria
Method in brief: (§2)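 Broth microdilution used 6-h peptone cultures diluted to about 10^5 cfu/mL, with two-fold serial dilutions of adjuvant alone. Plates were incubated at 37 °C with shaking at 150 rpm. MIC was taken as the lowest concentration giving OD600 equal to the media control at 24 h.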

[6] = test system: K. pneumoniae R3934; test: as above; settings: Klebsiella pneumoniae, R3934, read-out: MIC against clinical isolates of bacteria
Method in brief: as §2

[7] = test system: P. aeruginosa R590; test: as above; settings: Pseudomonas aeruginosa, R590, read-out: MIC against clinical isolates of bacteria
Method in brief: as §2

[8] = test system: E. coli R3336; test: as above; settings: Escherichia coli, R3336, read-out: MIC against clinical isolates of bacteria
Method in brief: as §2

## NCCCC[C@H](N)C(=O)NCCCCCCN(CCCCCCNC(=O)[C@@H](N)CCCCN)C(=O)CC(c1ccccc1)c1ccccc1 [Compound 14, N,N-bis-[(6-(^LLys)amido)hexyl] 3,3-diphenyl propanamide tetrakis trifluoroacetate]
[1]; antibiotic Ampicillin
  MIC of antibiotic in presence of adjuvant: No potentiation
[1]; antibiotic Ciprofloxacin
  FICI: <0.281
  MIC of antibiotic in presence of adjuvant: 64 µg/mL
  Potentiation factor: 4
[1]; antibiotic Erythromycin
  FICI: <0.0625
  MIC of antibiotic in presence of adjuvant: 16 µg/mL
  Potentiation factor: 32
[1]; antibiotic Fusidic acid
  FICI: <0.012
  MIC of antibiotic in presence of adjuvant: <0.5 µg/mL
  Potentiation factor: >128
[1]; antibiotic Linezolid
  FICI: <0.156
  MIC of antibiotic in presence of adjuvant: 32 µg/mL
  Potentiation factor: 8
[1]; antibiotic Minocycline
  FICI: <0.129
  MIC of antibiotic in presence of adjuvant: 1 µg/mL
  Potentiation factor: 8
[1]; antibiotic Rifampicin
  FICI: <0.017
  MIC of antibiotic in presence of adjuvant: <0.125 µg/mL
  Potentiation factor: >512
[1]; antibiotic Streptomycin
  MIC of antibiotic in presence of adjuvant: No potentiation
[1]; antibiotic Tetracycline
  FICI: <0.25
  MIC of antibiotic in presence of adjuvant: 16 µg/mL
  Potentiation factor: 8
[1]; antibiotic Vancomycin
  FICI: <0.3125
  MIC of antibiotic in presence of adjuvant: 16 µg/mL
  Potentiation factor: 4
[2]; antibiotic Fusidic acid
  FICI: <0.1289
  MIC of antibiotic in presence of adjuvant: 2 µg/mL
  Potentiation factor: 256
[2]; antibiotic Linezolid
  FICI: <0.1328
  MIC of antibiotic in presence of adjuvant: 64 µg/mL
  Potentiation factor: >8
[2]; antibiotic Minocycline
  FICI: <0.1328
  MIC of antibiotic in presence of adjuvant: 0.5 µg/mL
  Potentiation factor: 128
[2]; antibiotic Rifampicin
  FICI: <0.126
  MIC of antibiotic in presence of adjuvant: 0.5 µg/mL
  Potentiation factor: 1024
[3]; antibiotic Chloramphenicol
  FICI: <0.3125
  MIC of antibiotic in presence of adjuvant: 32 µg/mL
  Potentiation factor: 4
[3]; antibiotic Colistin
  FICI: <0.266
  MIC of antibiotic in presence of adjuvant: 0.25 µg/mL
  Potentiation factor: 4
[3]; antibiotic Daptomycin
  MIC of antibiotic in presence of adjuvant: No potentiation
[3]; antibiotic Fusidic acid
  FICI: <0.012
  MIC of antibiotic in presence of adjuvant: <0.25 µg/mL
  Potentiation factor: >256
[3]; antibiotic Linezolid
  FICI: <0.156
  MIC of antibiotic in presence of adjuvant: 32 µg/mL
  Potentiation factor: 8
[3]; antibiotic Minocycline
  FICI: <0.156
  MIC of antibiotic in presence of adjuvant: 1 µg/mL
  Potentiation factor: 8
[3]; antibiotic Rifampicin
  FICI: <0.016
  MIC of antibiotic in presence of adjuvant: <0.125 µg/mL
  Potentiation factor: >1024
[3]; antibiotic Tetracycline
  FICI: <0.1875
  MIC of antibiotic in presence of adjuvant: 16 µg/mL
  Potentiation factor: 16
[4]; antibiotic Fusidic acid
  FICI: <0.0625
  MIC of antibiotic in presence of adjuvant: 16 µg/mL
  Potentiation factor: >32
[4]; antibiotic Linezolid
  MIC of antibiotic in presence of adjuvant: No potentiation
[4]; antibiotic Minocycline
  FICI: <0.0156
  MIC of antibiotic in presence of adjuvant: <0.25 µg/mL
  Potentiation factor: >128
[4]; antibiotic Rifampicin
  FICI: <0.047
  MIC of antibiotic in presence of adjuvant: 4 µg/mL
  Potentiation factor: 128
[5]
  MIC: > 512 µg/mL
[6]
  MIC: > 512 µg/mL
[7]
  MIC: > 512 µg/mL
[8]
  MIC: > 512 µg/mL
